Measurements as given in ChEMBL document CHEMBL1201862, “PubChem BioAssay data set” (2004).
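Five concentrations, 48 hours, 96-well plates. At the GI50, growth is halved.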 The source made the active and inactive calls. No stated cut-off is given here; in the data, active = GI50 up to about 1.1 µM and inactive = higher.

Assays:
Experiment in all cases: NCI-60 cell line screen, 48 h
[1] = system: HT-29
[2] = system: HCC 2998
[3] = system: HOP-92
[4] = system: SK-MEL-2
[5] = system: SK-MEL-28
[6] = system: UACC-257
[7] = system: OVCAR-8
[8] = system: KM12
[9] = system: SN12C
[10] = system: SNB-75
[11] = system: SF-295
[12] = system: KM-20L2
[13] = system: OVCAR-3
[14] = system: UACC-62
[15] = system: SF-539
[16] = system: M14
[17] = system: HOP-62
[18] = system: HL-60
[19] = system: MCF7
[20] = system: MDA-MB-435

Compound | GI50 [1] | GI50 [2] | GI50 [3] | GI50 [4] | GI50 [5] | GI50 [6] | GI50 [7] | GI50 [8] | GI50 [9] | GI50 [10] | GI50 [11] | GI50 [12] | GI50 [13] | GI50 [14] | GI50 [15] | GI50 [16] | GI50 [17] | GI50 [18] | GI50 [19] | GI50 [20]
NCCCOCC(=O)O | > 100 µM (inactive) | > 100 µM (inactive) | > 100 µM (inactive) | > 100 µM (inactive) | > 100 µM (inactive) | > 100 µM (inactive) | > 100 µM (inactive) | > 100 µM (inactive) | > 100 µM (inactive) | > 100 µM (inactive) | > 100 µM (inactive) | > 100 µM (inactive) | > 100 µM (inactive) | > 100 µM (inactive) | > 100 µM (inactive) | – | – | – | – | –
CC(C)(CN1CCCCC1)C(=O)CC(SCCS(=O)(=O)O)c1ccc(Br)cc1 (configuration not stated) | 1.75 µM (inactive) | 2.7 µM (inactive) | 0.578 µM (active) | 2.32 µM (inactive) | 3.27 µM (inactive) | 3.17 µM (inactive) | 2.38 µM (inactive) | 2 µM (inactive) | 1.34 µM (inactive) | 2.07 µM (inactive) | 5.12 µM (inactive) | 1.58 µM (inactive) | – | 1.84 µM (inactive) | 1.6 µM (inactive) | 1.59 µM (inactive) | 6.18 µM (inactive) | – | – | –
CC(=O)OC1(C(C)=O)CC2(c3ccccc3)OC1(c1ccccc1)c1ccccc12 (configuration not stated) | 30.1 µM (inactive) | 16.8 µM (inactive) | 17.7 µM (inactive) | 12.6 µM (inactive) | 31.6 µM (inactive) | 4.1 µM (inactive) | 34.6 µM (inactive) | 17.3 µM (inactive) | 35.6 µM (inactive) | 59.6 µM (inactive) | 33.3 µM (inactive) | 8.59 µM (inactive) | 11.4 µM (inactive) | 4.36 µM (inactive) | 32 µM (inactive) | 14.4 µM (inactive) | 11.6 µM (inactive) | – | – | –
O=C1/C(=C(\Nc2ccccc2)c2ccccc2)C=NN1c1ccccc1 | 47.9 µM (inactive) | > 100 µM (inactive) | – | > 100 µM (inactive) | > 100 µM (inactive) | > 100 µM (inactive) | > 100 µM (inactive) | > 100 µM (inactive) | > 100 µM (inactive) | > 100 µM (inactive) | > 100 µM (inactive) | > 100 µM (inactive) | – | > 100 µM (inactive) | > 100 µM (inactive) | > 100 µM (inactive) | – | 17.7 µM (inactive) | – | –
Cc1ccc(-c2cc(-c3ccco3)c(C#N)c(O)n2)cc1 | > 100 µM (inactive) | > 100 µM (inactive) | > 100 µM (inactive) | – | > 100 µM (inactive) | > 100 µM (inactive) | > 100 µM (inactive) | > 100 µM (inactive) | > 100 µM (inactive) | 18.7 µM (inactive) | > 100 µM (inactive) | > 100 µM (inactive) | > 100 µM (inactive) | > 100 µM (inactive) | > 100 µM (inactive) | > 100 µM (inactive) | 50.2 µM (inactive) | > 100 µM (inactive) | – | –
Nc1c(-c2ccc(Cl)cc2Cl)[n+]([O-])c2ccccc2[n+]1[O-] | > 100 µM (inactive) | > 100 µM (inactive) | – | > 100 µM (inactive) | > 100 µM (inactive) | > 100 µM (inactive) | > 100 µM (inactive) | > 100 µM (inactive) | > 100 µM (inactive) | 48.2 µM (inactive) | > 100 µM (inactive) | > 100 µM (inactive) | > 100 µM (inactive) | > 100 µM (inactive) | > 100 µM (inactive) | > 100 µM (inactive) | > 100 µM (inactive) | > 100 µM (inactive) | – | –
FC(F)(F)c1cccc(/C=N/C23CC4CC(CC(C4)C2)C3)c1 | > 100 µM (inactive) | > 100 µM (inactive) | – | > 100 µM (inactive) | > 100 µM (inactive) | > 100 µM (inactive) | > 100 µM (inactive) | > 100 µM (inactive) | > 100 µM (inactive) | 51.9 µM (inactive) | > 100 µM (inactive) | > 100 µM (inactive) | > 100 µM (inactive) | – | > 100 µM (inactive) | > 100 µM (inactive) | > 100 µM (inactive) | > 100 µM (inactive) | – | –
O=C(O)[C@@H](NS(=O)(=O)c1ccc2ccccc2c1)c1ccccc1 | > 100 µM (inactive) | > 100 µM (inactive) | > 100 µM (inactive) | > 100 µM (inactive) | > 100 µM (inactive) | > 100 µM (inactive) | – | – | > 100 µM (inactive) | > 100 µM (inactive) | – | > 100 µM (inactive) | – | > 100 µM (inactive) | > 100 µM (inactive) | > 100 µM (inactive) | – | > 100 µM (inactive) | – | –
O=C1/C(=C/c2ccc3c(c2)OCO3)SC2C=Nc3ccccc3N12 (configuration not stated) | > 100 µM (inactive) | > 100 µM (inactive) | > 100 µM (inactive) | > 100 µM (inactive) | > 100 µM (inactive) | > 100 µM (inactive) | > 100 µM (inactive) | > 100 µM (inactive) | > 100 µM (inactive) | 28.9 µM (inactive) | > 100 µM (inactive) | > 100 µM (inactive) | > 100 µM (inactive) | 54.8 µM (inactive) | 86.1 µM (inactive) | > 100 µM (inactive) | > 100 µM (inactive) | – | – | –
C=CCNC(=O)NCCCC(NC(C)=O)C(=O)NCc1ccccc1 (configuration not stated) | > 100 µM (inactive) | – | > 100 µM (inactive) | > 100 µM (inactive) | > 100 µM (inactive) | > 100 µM (inactive) | > 100 µM (inactive) | > 100 µM (inactive) | > 100 µM (inactive) | > 100 µM (inactive) | > 100 µM (inactive) | > 100 µM (inactive) | > 100 µM (inactive) | > 100 µM (inactive) | > 100 µM (inactive) | > 100 µM (inactive) | > 100 µM (inactive) | > 100 µM (inactive) | – | –
CN1C(=O)N(C)C2(O)c3ccccc3C(=O)C12O (configuration not stated) | > 100 µM (inactive) | > 100 µM (inactive) | – | > 100 µM (inactive) | > 100 µM (inactive) | > 100 µM (inactive) | > 100 µM (inactive) | > 100 µM (inactive) | > 100 µM (inactive) | > 100 µM (inactive) | > 100 µM (inactive) | > 100 µM (inactive) | > 100 µM (inactive) | > 100 µM (inactive) | > 100 µM (inactive) | > 100 µM (inactive) | > 100 µM (inactive) | – | – | –
COC(=O)C(CCC#N)(CCC#N)C(=O)OC | > 100 µM (inactive) | > 100 µM (inactive) | – | – | > 100 µM (inactive) | > 100 µM (inactive) | > 100 µM (inactive) | > 100 µM (inactive) | > 100 µM (inactive) | – | > 100 µM (inactive) | > 100 µM (inactive) | > 100 µM (inactive) | > 100 µM (inactive) | > 100 µM (inactive) | > 100 µM (inactive) | > 100 µM (inactive) | > 100 µM (inactive) | – | –
CC(=O)Nc1cc([As](=O)(O)O)ccc1O [ACETARSONE] | > 100 µM (inactive) | > 100 µM (inactive) | > 100 µM (inactive) | > 100 µM (inactive) | > 100 µM (inactive) | > 100 µM (inactive) | > 100 µM (inactive) | > 100 µM (inactive) | > 100 µM (inactive) | > 100 µM (inactive) | > 100 µM (inactive) | – | > 100 µM (inactive) | > 100 µM (inactive) | > 100 µM (inactive) | > 100 µM (inactive) | > 100 µM (inactive) | > 100 µM (inactive) | > 100 µM (inactive) | > 100 µM (inactive)
CN(O)C(=O)Cc1ccc(OCc2cccc(Cl)c2)cc1 | > 100 µM (inactive) | > 100 µM (inactive) | > 100 µM (inactive) | > 100 µM (inactive) | > 100 µM (inactive) | > 100 µM (inactive) | > 100 µM (inactive) | > 100 µM (inactive) | > 100 µM (inactive) | > 100 µM (inactive) | > 100 µM (inactive) | – | > 100 µM (inactive) | > 100 µM (inactive) | > 100 µM (inactive) | > 100 µM (inactive) | > 100 µM (inactive) | > 100 µM (inactive) | > 100 µM (inactive) | > 100 µM (inactive)
CC(C)N1CC2CN(Cc3ccccc3)CC(C1)C2=O | > 100 µM (inactive) | > 100 µM (inactive) | > 100 µM (inactive) | > 100 µM (inactive) | > 100 µM (inactive) | > 100 µM (inactive) | > 100 µM (inactive) | > 100 µM (inactive) | > 100 µM (inactive) | > 100 µM (inactive) | > 100 µM (inactive) | – | > 100 µM (inactive) | > 100 µM (inactive) | > 100 µM (inactive) | > 100 µM (inactive) | > 100 µM (inactive) | > 100 µM (inactive) | > 100 µM (inactive) | > 100 µM (inactive)
N#Cc1nc(NC(=O)c2ccccc2)sc1N | > 10 µM (inactive) | > 10 µM (inactive) | > 10 µM (inactive) | > 10 µM (inactive) | > 10 µM (inactive) | > 10 µM (inactive) | > 10 µM (inactive) | > 10 µM (inactive) | > 10 µM (inactive) | > 10 µM (inactive) | > 10 µM (inactive) | – | > 10 µM (inactive) | > 10 µM (inactive) | > 10 µM (inactive) | > 10 µM (inactive) | > 10 µM (inactive) | 3 µM (inactive) | > 2.22 µM (inactive) | > 10 µM (inactive)
